In the supplement of paper PMC10290057 one finds efficacy data, which are given here for 47 compounds.

Where a name gives a salt, the structure may show the parent alone.
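Further: Luminescence-based viability readout, five doses per compound, normalized against on-plate DMSO and empty-well controls, followed by dose-response curve fitting for every drug.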

The subject of this test is HCT116. Nature of the test: efficacy (fitted maximal change in viability relative to DMSO control); higher = less cytotoxic (negative = loss of viability). The settings on record: 48 h.
As to `C=C[C@H]1CN2CCC1C[C@@H]2[C@@H](O)c1ccnc2ccccc12` (some centres not stated) [Cinchonine dihydrochloride], the efficacy was -36.1%.

On to `CC(C)(Oc1ccc(C2CC2(Cl)Cl)cc1)C(=O)O` (configuration not stated) [Ciprofibrate], for which the efficacy is -6.71%.

With `[NH2][Pt]([NH2])([Cl])[Cl]` [Cisplatin], the efficacy was -25%.

As to `CCC[C@@H]1C[C@@H](C(=O)N[C@@H]([C@H]2O[C@H](SC)[C@H](O)[C@@H](O)[C@H]2O)[C@H](C)Cl)N(C)C1` [Clindamycin HCl], the efficacy was -14.1%.

As for `CCCCCCCCCCCCCCCC(=O)O[C@@H]1[C@@H](O)[C@@H](O)[C@@H]([C@H](NC(=O)[C@@H]2C[C@@H](CCC)CN2C)[C@H](C)Cl)O[C@@H]1SC.Cl` [Clindamycin palmitate], the efficacy was -24.9%.

With `CCC(=O)O[C@@]1([C@@H](C)C[C@H]2[C@@H]3CCC/4=C/C(=O)/C=C\[C@]4(C)[C@@]3(F)[C@@H](O)C[C@]12C)C(=O)CCl` [Clobetasol propionate], the efficacy is -57.1%.

Turning to `Nc1nc(Cl)nc2c1ncn2[C@@H]1O[C@H](CO)[C@@H](O)[C@@H]1F` [Clofarabine], the efficacy was -51.1%.

For the compound `CN(C)CCCN1c2ccccc2CCc2ccc(Cl)cc21` [Clomipramine hydrochloride], the efficacy was -84.3%.

For the compound `COC(=O)[C@H](c1ccccc1Cl)N1CCc2sccc2C1` [Clopidogrel bisulfate], the efficacy is -22.3%.

As to `Nc1cc(c(cc1S(=O)(N)=O)S(N)(=O)=O)C(/Cl)=C(/Cl)Cl` [Clorsulon], the efficacy is -7.71%.

For the compound `COC1=C(OC)C(=O)C(C/C=C(\C)CC/C=C(\C)CC/C=C(\C)CC/C=C(/C)CC/C=C(\C)CC/C=C(\C)CC/C=C(\C)CC/C=C(\C)CC/C=C(\C)CCC=C(C)C)=C(C)C1=O` [Coenzyme Q10], the efficacy was determined as 7.5%.

`CN(Cc1ccccc1)C(=O)c1ccc([S+](=O)([O-])Nc2ccccc2)cc1` [Compound 2]: the efficacy was -20.4%.

As to `CN[C@@H](C)C(=O)N[C@@H]1C(=O)N(Cc2c(C)ccc3ccccc23)c2ccc(C#N)cc2N(C(C)=O)[C@H]1C` [Compound 36], the efficacy was -26%.

On to `Nc1ncnc2c1ncn2[C@@H]1O[C@H](CO)C[C@H]1O` [Cordycepin], for which the efficacy is -20.6%.

Consider `CC(=O)OCC(=O)[C@@]1(O)CC[C@H]2[C@@H]3CCC/4=C/C(=O)CC[C@]4(C)[C@H]3C(=O)C[C@]12C` [Cortisone acetate], for which the efficacy was 22.5%.

`C[C@@H]1C[C@H]2[C@@H]3\C=C(C)/C4=C/C5=C(C[C@]4(C)[C@H]3[C@@H](O)C[C@]2(C)[C@@]1(O)C(=O)COC(C)=O)C=N[N]5C6=CC=CC=C6` [Cortivazol]: the efficacy is -25.2%.

Turning to `C/C=C/C(=O)N(CC)c1ccccc1C` [Crotamiton], the efficacy amounted to 6.9%.

As to `C[C@H]1COC/2=C1/C(=O)C(=O)C3=C4CCCC(C)(C)C4=CC=C23` [Cryptotanshinone], the efficacy is -30%.

`C=C1C[C@@]2(O)O[C@@]3(C[C@H]2C(C)C)[C@@H](C)CC[C@@H]13` [Curcumol]: the efficacy was -14.1%.

For the compound `COc1ccc(CCN2CCN(CCCc3ccccc3)CC2)cc1OC` [Cutamesine hydrochloride], the efficacy was -28.5%.

For `CN[C@@H](C)[C@H]1[C@H](O)C[C@@]2(C)[C@@H]3CC[C@H]4C(C)(C)[C@@H](NC)CC[C@@]45C[C@@]35CC[C@]12C` [Cyclovirobuxin D], the efficacy was -29.5%.

Take `CC(C)C(N)C(=O)OCC(CO)OC[N]1C=NC2=C1N\C(=N/C2=O)N` (configuration not stated) [Cymeval]: the efficacy was -19.5%.

Consider `CC(=O)O[C@@]1(CC[C@H]2[C@@H]3\C=C(Cl)/C4=C/C(=O)[C@@H]5C[C@@H]5[C@]4(C)[C@H]3CC[C@]12C)C(C)=O` [Cyproterone acetate], for which the efficacy is -60.6%.

Regarding `NC\1=N\C(=O)N(\C=C1)[C@@H]2O[C@H](CO)[C@@H](O)[C@H]2O` [Cytidine], the efficacy was -11.1%.

With `O=C1\C=C/C=C2/[C@H]3CNC[C@H](C3)CN12` [Cytisine], the efficacy is -21.9%.

`O=C(O)c1ccc(CCCc2ccc(OCCc3ccc(F)cc3)cc2)o1` [D-942]: the efficacy is -66.5%.

For the compound `NC(=O)c1ccc(-c2nc(-c3ccc4c(c3)OCCO4)c(-c3ccccn3)[nH]2)cc1` [D-4476], the efficacy is -84.9%.

Regarding `N[C@@H]1CONC1=O` [D-Cycloserine], the efficacy was -29.8%.

Turning to `Cn1c(CNc2ccc(C(=N)N)cc2)nc2cc(C(=O)N(CCC(=O)O)c3ccccn3)ccc21` [Dabigatran], the efficacy was -8.84%.

As to `CC(C)(C)c1nc(-c2cccc(N[S+](=O)([O-])c3c(F)cccc3F)c2F)c(-c2ccnc(N)n2)s1` [Dabrafenib], the efficacy is -29.3%.

With `COC(=O)N[C@H](C(=O)N1CCC[C@H]1c1ncc(-c2ccc(-c3ccc(-c4cnc([C@@H]5CCCN5C(=O)[C@@H](NC(=O)OC)C(C)C)[nH]4)cc3)cc2)[nH]1)C(C)C` [Daclatasvir dihydrochloride], the efficacy was -112%.

With `OC1=CC=C(C=C1)\C2=C\OC3=C(C=CC(=C3)O)C2=O` [Daidzein], the efficacy turned out to be 12.4%.

As to `OC[C@H]1O[C@@H](OC2=CC3=C(C=C2)C(=O)\C(=C/O3)C4=CC=C(O)C=C4)[C@H](O)[C@@H](O)[C@@H]1O` [Daidzin], the efficacy is -23.3%.

`CCC(CC)CC1(C(=O)Nc2ccccc2SC(=O)C(C)C)CCCCC1` [Dalcetrapib]: the efficacy is -17.1%.

As for `CN(C)NC(=O)CCC(=O)O` [Daminozide], the efficacy was -8.97%.

For `O=C(O)CNC(=O)C1C(=O)N(C2CCCCC2)C(=O)N(C2CCCCC2)C1=O` [Daprodustat], the efficacy is -6.36%.

As to `COc1cccc2c1C(=O)c1c(O)c3c(c(O)c1C2=O)C[C@@](O)(C(C)=O)C[C@@H]3O[C@H]1C[C@H](N)[C@H](O)[C@H](C)O1` [Daunorubicin], the efficacy is -77.4%.

On to `CC(=O)OCC(=O)[C@@]12\N=C(C)/O[C@@H]1C[C@H]3[C@@H]4CCC/5=C/C(=O)/C=C\[C@]5(C)[C@H]4[C@@H](O)C[C@]23C` [Deflazacort], for which the efficacy came to 9%.

In the case of `C[C@]12CC[C@H]3[C@@H](C\C=C/4C[C@@H](O)CC[C@]34C)[C@@H]1CCC2=O` [Dehydroepiandrosterone], the efficacy was -17%.

With `C[C@@H](CN1CC(=O)NC(=O)C1)N1CC(=O)NC(=O)C1` [Dexrazoxane hydrochloride], the efficacy was -22.3%.

As to `O=C([O-])Cc1ccccc1Nc1c(Cl)cccc1Cl` [Diclofenac sodium], the efficacy was -6.7%.

`N[S+](=O)([O-])c1cc(Cl)c(Cl)c([S+](N)(=O)[O-])c1` [Diclofenamide]: the efficacy was -19.2%.

As for `C/C=C(/C(=C/C)c1ccc(O)cc1)c1ccc(O)cc1` [Dienestrol], the efficacy was -63.7%.

For the compound `C[C@]12CCC\3=C\4CCC(=O)\C=C4CC[C@H]3[C@@H]1CC[C@@]2(O)CC#N` [Dienogest], the efficacy is -15.9%.

As for `OC1=CC2=C(C(=C1)O)C(=O)\C=C(/O2)C3=CC(=C(O)C=C3)O` [Digitoflavone], the efficacy was -77.5%.

Regarding `c1ccc2c(Cc3c[nH]c4ccccc34)c[nH]c2c1` [Diindolylmethane], the efficacy was -49.5%.

Consider `COc1ccc([C@@H]2Sc3ccccc3N(CCN(C)C)C(=O)[C@@H]2OC(C)=O)cc1` [Diltiazem hydrochloride], for which the efficacy is -17.5%.
